Source: publication PMC3878228 (BMC Plant Biology, 2013)
Residue numbers refer to the chain shown, from its start. “Also recorded” adds a separate entry of the source. Blank lines part the entries; values can stand above or below the molecule they belong to.

How the values were obtained:
[1] = 200 μL medium with five pre-germinated Arabidopsis (Ler) seedlings; settings: 22°C
[2] = test system: primary roots / root meristems (RMs) of Ler seedlings; test: In vitro root assay in Ler seedlings; format: in vivo, Arabidopsis; settings: for Concentration at which the peptide was active in the root assay (primary root length): Ler seedlings, 8-d inoculation, tested at 10 nM, 30 nM, 100 nM, 1 μM
Description: (§1) Similarly, in vitro root assays were performed in Ler and clv2-1 (in Ler background) seedlings.
To evaluate activities of above-mentioned synthetic peptides with various N-terminal extensions, we performed in vitro root assays using Ler seedlings. The lengths of primary roots were measured after 8-d inoculations with either CLV3p12, L-CLV3p13, EEL-CLV3p15, HEEL-CLV3p16 or LHEEL-CLV3p17 at concentrations of 10 nM, 30 nM, 100 nM, or 1 μM (Figure 4).
(§2) Seeds of clv1-1, clv2-1 and clv3-2 (all in Ler background), Col-0 and Ler were gas-sterilized as reported previously, and imbibed in sterilized distilled water at 4°C in dark for 2 days before plating. In vitro root and SAM assays were performed as described.

[3] = test system: shoot apical meristems (SAMs) of clv3-2 seedlings; test: In vitro SAM assay in clv3-2 seedlings; format: in vivo, Arabidopsis; settings: for Sizes of SAMs of clv3-2 seedlings after treatment: 1 μM fusion protein, 8 days, 8-d-old clv3-2 seedlings, n = 8, P < 0.01 Student's t-test
Description: (§3) In vitro activity assays of the TH-ProCLV3 fusion protein in SAMs were performed using clv3-2 and clv1-1 (both in Ler background) mutants of Arabidopsis, as described previously.
as §2

[4] = test system: CLV1; settings: tobacco BY-2 cells; cited from earlier work
Description: (§4) CLV3 is one of the well-studied peptide hormones in plants. The CLV3 gene encodes a 96-AA secretory protein that functions in a feedback regulation loop to restrict the number of stem cells in SAMs by repressing the expression of the WUSCHEL (WUS) transcription factor [16, 21]. […] CLV3 sh ...

[5] = test system: shoot and root meristems (RMs); settings: synthetic peptides corresponding to the CLE motif; cited from earlier work
Description: as §4

[6] = 200 μL liquid medium with five pre-germinated Ler seedlings (half-strength Murashige and Skoog, 1% sucrose, MES); settings: Arabidopsis thaliana (Ler), 22°C, up to 48 hrs
[7] = test system: shoot apical meristems (SAMs) of clv1-1 seedlings; test: In vitro SAM assay in clv1-1 seedlings; format: in vivo, Arabidopsis; settings: 1 μM fusion protein, 8-d-old clv1-1 seedlings, n = 8
Description: as §3
The commonly known subtilase recognition site is Lys/Arg-Arg. Although in most CLE members of Arabidopsis the residue located before the conserved Arg of the 12-AA CLE motif is Lys (Additional file 3), for CLV3 the residue is Leu. We examined if a Leu69Lys substitution hampered the activity of the fusion protein. TH-ProCLV3Leu69Lys was produced in E. coli and applied to clv3-2 seedlings in vitro.
as §2

[8] = test system: roots / root meristems (RMs) of clv2-1 seedlings; test: In vitro root assay in clv2-1 seedlings; format: in vivo, Arabidopsis; settings: 1 μM TH-ProCLV3, 8-d-old clv2-1 seedlings, n = 8
Description: as §1, §2

[9] = test system: WUS expression; test: qRT-PCR of WUS expression in shoot apices of clv3-2 seedlings; format: in vivo, Arabidopsis; settings: 8-d-old clv3-2 seedlings, 1 μM fusion protein in liquid medium, normalised to EIF4A1, 3 independent biological repeats
Description: To address if these fusion proteins are able to repress the WUS expression in SAMs, qRT-PCR analyses were performed with cDNAs from shoot apices after treatments with various fusion proteins. […] In contrast, the expression level of WUS in the TH-ProCLV3Leu69Ala-treated clv3-2 seedlings was only about 50% of the untreated ones (Figure 5F).
Total RNA was extracted using a Plant Total RNA Isolation Kit (TIANGEN, Beijing, China) from approximately 30 shoot apices excised from 8-d-old seedlings cultured in fusion protein-containing liquid media, and then reverse transcribed to cDNA with the First Strand cDNA Synthesis Kit ReverTra Ace-α (TOYOBO, Japan). qRT–PCR was performed in a Rotor-Gene 3000 thermocycler (Corbett, Australia) with the SYBR Premix ExTaq II kit (TaKaRa, Dalian, China), and the relative expression levels of the WUS [GenBank: NM_127349.3] were normalized against the internal control EIF4A1 [GenBank: NM_001084679.1] and calculated using the Rotor-Gene 6 software v 6.0 (Corbett, Australia) according to the 2^-∆∆CT method. Primer pairs of 5’-[…]-3’ and 5’-[…] -3’, and 5’-TTCTCTGCGACAATGCCTC-3’ and 5’-GCTTCCAGTCTTCTTTC TCCAC-3’ were used to amplify WUS and EIF4A1, respectively.

- cleaved bond ([1]; up to 3 d): H-H81
Molecule: EELRTVPSGPDPLHH

Molecule: EELRTVPSGPDPLHH [EEL-CLV3p15, CLV3p12 with additional 3 N-terminal residues]
- Concentration at which the peptide was active in the root assay (primary root length) ([2]; n = 8): 100 nM

- cleaved bond ([1]; up to 3 d): Met-Arg, 3 d
Molecule: FNESMRLSPGGPDPRHH
- fragment found ([1]; up to 3 d): FNESMRLSPGGPDPRH; also recorded: FNESMRLSPGGPDPR; also recorded: FNESMRLSPGGPDP; also recorded: SMRLSPGGPDPR; also recorded: RLSPGGPDPR; also recorded: LSPGGPDPRHH; also recorded: SPGGPDPRHH; also recorded: SPGGPDPR

- cleaved bond ([1]; up to 3 d): Arg70-Thr71
Molecule: HEELRTVPSGPDPLHH

- cleaved bond ([1]; up to 3 d): H-H81
Molecule: LHEEARTVPSGPDPLHH

Molecule: LHEELRTVPSGPDPLHH
- cleaved bond ([1]; up to 3 d): Leu69-Arg70, 3 d; also recorded: Arg70-Thr71, 3 d; also recorded: H-H81, first_seen, 2 d

Molecule: LHEELRTVPSGPDPLHH [LHEEL-CLV3p17, CLV3p12 with additional 5 N-terminal residues]
- Concentration at which the peptide was active in the root assay (primary root length) ([2]; n = 8): 10 nM

Molecule: LRTVPSGPDPLHH
- cleaved bond ([1]; up to 3 d): L69-R70; also recorded: R70-T71; also recorded: H-H81

Molecule: MRLSPGGPDPRHH [M-CLE1p13, synthesized CLE1 peptide with 1 N-terminal flanking residue]
- Fold less active than CLE1p12 in restricting the sizes of SAMs ([3]; clv3-2 seedlings, 8-d incubation, 10 nM to 10 μM peptide, n = 16): about 100 fold

Molecule: RLSPGGPDPRHH
- fragment found ([1]; up to 3 d): RLSPGGPDPRH; also recorded: RLSPGGPDPR; also recorded: LSPGGPDPRHH; also recorded: SPGGPDPRHH; also recorded: SPGGPDPR

- cleaved bond ([1]; up to 3 d): R70-T71; also recorded: H-H81
Molecule: RTVPSGPDPLHH

Molecule: RTVPSGPDPLHH [CLV3p12, chemically synthesized 12-AA CLV3 peptide corresponding to the CLE motif]
- Concentration at which the peptide was active in the root assay (primary root length) ([2]; n = 8): 10 nM
- Interaction with CLV1 [4]: Direct interaction
- Function in promoting stem cell differentiation in vitro [5]: functional in promoting stem cell differentiation in both shoot and root meristems

- cleaved bond ([1]; up to 48 hrs): K38-Met39, major
Molecule: Trx-His-HAHVQGLSNRKMMMMKMESEWVGANGEAEKAKTKGLGLHEELRTVPSGPDPLHHHVNPPRQPRNNFQLP

Molecule: Trx-His-HAHVQGLSNRKMMMMMKMESEWVGANGEAEKAKTKGLGLHEEARTVPSGPDPLHHHVNPPRQPRNNFQLP
- fragment found [6]: CLV3p12 (RTVPSGPDPLHH); also recorded: CLV3p13 (RTVPSGPDPLHHH)

- fragment found [6]: MMMMKMESEWVGANGEAEKAKTKGLGLHEEK
Molecule: Trx-His-HAHVQGLSNRKMMMMMKMESEWVGANGEAEKAKTKGLGLHEEKRTVPSGPDPLHHHVNPPRQPRNNFQLP

Molecule: Trx-His-HAHVQGLSNRKMMMMMKMESEWVGANGEAEKAKTKGLGLHEELRTVPSGPDPLHHHVNPPRQPRNNFQLP
- fragment found [6]: RTVPSGPDPLHH (CLV3p12); also recorded: RTVPSGPDPLHHH (CLV3p13)

B1: TH-ProCLV3: CLV3 proprotein without signal peptide, N-terminal Trx and His tags, produced in E. coli, 23.8 kD (protein, UniProt Q9XF04 22-96, looked up)
pro-form: SDLTQAHAHVQGLSNRKMMMMKMESEWVGANGEAEKAKTKGLGLHEELRTVPSGPDPLHHHVNPPRQPRNNFQLP
modifications: pro-form N-terminal thioredoxin and His tags
notes: CLV3 proprotein without signal peptide, N-terminal Trx and His tags, produced in E. coli, 23.8 kD
- Sizes of SAMs of clv3-2 seedlings after treatment [3]: significant reduced sizes of SAMs
- Sizes of SAMs of clv1-1 seedlings after treatment [7]: no evident reduction; also recorded: no significant differences
- Root growth of Ler seedlings ([2]; 1 μM TH-ProCLV3, 8-d-old Ler seedlings, n = 8): inhibited greatly
- Root meristem (RM) state in Ler, microscopic examination ([2]; 1 μM TH-ProCLV3, Ler seedlings): termination of RMs in Ler
- Root growth of clv2-1 seedlings [8]: no evident growth inhibition
- Expression level of WUS in shoot apices relative to non-treated clv3-2 seedlings [9]: about 10%

B2: TH-ProCLV3Leu69Lys: TH-ProCLV3 fusion protein with Leu69Lys substitution, produced in E. coli (protein, UniProt Q9XF04 22-96, looked up, variant L69K)
pro-form: B1 pro-form with L48K
modifications: pro-form N-terminal thioredoxin and His tags
notes: TH-ProCLV3 fusion protein with Leu69Lys substitution, produced in E. coli
- Sizes of SAMs of clv3-2 seedlings after treatment [3]: no significant difference
- Sizes of SAMs of clv1-1 seedlings after treatment [7]: no significant differences

B3: TH-ProCLV3Leu69Ala: TH-ProCLV3 fusion protein with Leu69Ala substitution, produced in E. coli (protein, UniProt Q9XF04 22-96, looked up, variant L69A)
pro-form: B1 pro-form with L48A
modifications: pro-form N-terminal thioredoxin and His tags
notes: TH-ProCLV3 fusion protein with Leu69Ala substitution, produced in E. coli
- Sizes of SAMs of clv3-2 seedlings after treatment [3]: significantly larger than those treated with TH-ProCLV3
- Sizes of SAMs of clv1-1 seedlings after treatment [7]: no significant differences
- Expression level of WUS in shoot apices relative to non-treated clv3-2 seedlings [9]: about 50%
